Test results reported in patent US11555212B2, “Process for the production of sulfated phenolic compounds using modified Escerichia coli” (CysBio ApS, priority 2016, dated 2023).

Tests used:
[1] = biological target: T1, SULT1A1 Canis lupus familiaris (Canis lupus familiaris, UniProt Q29476); experiment: Production of zosteric acid from pHCA in E. coli expressing a sulfotransferase; format: cell-based; details: E. coli BL21(DE3)pLysS expressing SULT1A1 Canis lupus familiaris; M9 glucose, 0.1 mM IPTG, 0.1 mM pHCA; four days
T1 construct: 1, 3, 4, 5, and 6 were cloned amplified from liver tissue cDNA; expressed in transfected cells; host or cells: E. coli BL21(DE3)pLysS
T1 sequence (Q29476 whole entry): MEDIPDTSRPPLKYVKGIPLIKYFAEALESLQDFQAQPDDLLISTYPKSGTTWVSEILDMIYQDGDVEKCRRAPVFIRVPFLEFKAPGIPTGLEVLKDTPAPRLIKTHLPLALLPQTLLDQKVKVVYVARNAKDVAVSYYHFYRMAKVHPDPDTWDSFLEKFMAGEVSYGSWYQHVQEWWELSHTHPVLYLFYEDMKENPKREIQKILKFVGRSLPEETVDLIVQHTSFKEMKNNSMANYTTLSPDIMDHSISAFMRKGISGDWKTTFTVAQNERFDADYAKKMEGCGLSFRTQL
Description: (§1) A range of aryl sulfotransferases including SULT1A1 Rattus norvegicus (SEQ ID NO: 1), SULT1A1 Homo sapiens (SEQ ID NO: 2), SULT1A1 Equus caballus (SEQ ID NO: 3), SULT1A1 Sus scrofa domesticus (SEQ ID NO: 4), SULT1A1 Canis lupus familiaris (SEQ ID NO: 5) and SULT1E1 Gallus gallus domesticus (SEQ ID NO: 6) were expressed in Escherichia coli. […]. The nucleotide sequence of the gene encoding SEQ ID NO: 2 was codon optimized for expression in Escherichia coli (GeneArt, Life Technologies) and amplified by PCR using the primers in Table 1. The pETDuet-1 plasmid was digested with restriction endonucleases NcoI and SalI. The PCR products were then individually cloned into the plasmid pETDuet-1 using the Gibson reaction (New England Biolabs). The resulting plasmids were transformed into BL21(DE3)pLysS (Life Technologies).
(§2) The strains were grown in M9 minimal media containing glucose as a carbon source, and 0.1 mM IPTG for induction of gene expression as well as 0.1 mM p-coumaric acid (pHCA). After four days of growth, samples were withdrawn by filtration and analyzed by HPLC.
(§3) The concentration of p-courmaric acid (pHCA) and zosteric acid in the supernatant was quantified by high performance liquid chromatography (HPLC) and compared to chemical standards. HPLC was done on a Thermo setup using a HS-F5 column and mobile phases: 5 mM ammonium formate pH 4.0 (A) and acetonitrile (B) at 1.5 mL min-1, using a gradient elution starting at 5% B. From 0.5 min after injection to 7 min, the fraction of B increased linearly from 5% to 60%, and between 9.5 min and 9.6 the fraction of B decreased back to 5%, and remaining there until 12 min. pHCA and zosteric acid were quantified by measuring absorbance at 277 nm.

[2] = biological target: T2, SULT1A1 Rattus norvegicus (Rattus norvegicus, UniProt P17988); experiment: as above; format: cell-based; details: E. coli BL21(DE3)pLysS expressing SULT1A1 Rattus norvegicus; M9 glucose, 0.1 mM IPTG, 0.1 mM pHCA; four days; culture media, HPLC
T2 construct: 1, 3, 4, 5, and 6 were cloned amplified from liver tissue cDNA; expressed in transfected cells
T2 sequence (P17988 whole entry): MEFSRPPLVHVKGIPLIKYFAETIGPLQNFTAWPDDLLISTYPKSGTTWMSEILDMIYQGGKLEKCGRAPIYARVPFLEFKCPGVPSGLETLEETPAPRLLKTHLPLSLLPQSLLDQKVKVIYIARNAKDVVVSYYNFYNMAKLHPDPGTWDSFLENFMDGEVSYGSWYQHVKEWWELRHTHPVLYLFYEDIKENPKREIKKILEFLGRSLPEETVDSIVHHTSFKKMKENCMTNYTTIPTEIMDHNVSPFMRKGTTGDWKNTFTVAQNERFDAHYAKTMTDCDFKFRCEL
Description: as §1, §2, §3

SULT1A1 human = biological target: T3, SULT1A1 human (Homo sapiens, UniProt P50225, V223M); experiment: as above; format: cell-based; details: E. coli BL21(DE3)pLysS expressing SULT1A1 Homo sapiens; M9 glucose, 0.1 mM IPTG, 0.1 mM pHCA; four days
T3 construct: expressed in transfected cells; host or cells: E. coli BL21(DE3)pLysS
T3 sequence (P50225 whole entry V223M): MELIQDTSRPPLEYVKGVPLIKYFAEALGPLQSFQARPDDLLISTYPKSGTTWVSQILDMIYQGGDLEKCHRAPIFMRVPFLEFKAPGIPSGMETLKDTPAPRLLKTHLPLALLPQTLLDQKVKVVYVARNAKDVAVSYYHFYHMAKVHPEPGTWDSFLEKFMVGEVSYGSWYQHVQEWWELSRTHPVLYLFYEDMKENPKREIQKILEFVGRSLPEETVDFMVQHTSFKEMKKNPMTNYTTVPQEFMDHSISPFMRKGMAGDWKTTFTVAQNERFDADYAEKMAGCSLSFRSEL
Description: as §1, §2, §3

RmXAL = biological target: T4, RmXAL (Rhodotorula mucilaginosa, UniProt P10248); experiment: pHCA and zosteric acid in culture media of E. coli expressing a tyrosine ammonia lyase; format: cell-based, Rhodotorula mucilaginosa/Rhodotorula rubra; details: E. coli BL21(DE3)pLysS expressing RmXAL alone, M9 glucose, 0.1 mM IPTG, no substrate added
T4 construct: The gene encoding RmXAL was codon optimized using standard algorithms for expression in E. coli; expressed in transfected cells; host or cells: E. coli BL21(DE3)pLysS
T4 sequence (P10248 whole entry): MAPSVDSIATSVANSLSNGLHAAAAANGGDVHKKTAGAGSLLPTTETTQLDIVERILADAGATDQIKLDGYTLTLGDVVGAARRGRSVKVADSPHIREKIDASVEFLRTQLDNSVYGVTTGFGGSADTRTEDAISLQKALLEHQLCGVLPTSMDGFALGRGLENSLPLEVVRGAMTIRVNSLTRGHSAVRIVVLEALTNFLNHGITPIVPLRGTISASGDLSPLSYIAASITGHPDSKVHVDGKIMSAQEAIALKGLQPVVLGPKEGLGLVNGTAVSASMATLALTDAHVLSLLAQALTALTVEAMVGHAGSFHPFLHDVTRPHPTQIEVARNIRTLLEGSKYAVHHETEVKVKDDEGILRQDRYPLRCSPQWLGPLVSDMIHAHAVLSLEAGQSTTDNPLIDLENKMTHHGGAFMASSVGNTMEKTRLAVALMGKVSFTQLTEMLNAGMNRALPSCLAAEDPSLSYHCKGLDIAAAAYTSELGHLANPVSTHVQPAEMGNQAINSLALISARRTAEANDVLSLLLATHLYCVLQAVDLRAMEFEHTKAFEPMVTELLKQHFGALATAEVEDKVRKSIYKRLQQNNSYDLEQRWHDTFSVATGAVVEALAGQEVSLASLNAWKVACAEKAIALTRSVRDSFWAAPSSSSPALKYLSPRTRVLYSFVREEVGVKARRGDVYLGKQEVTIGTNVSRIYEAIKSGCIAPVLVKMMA
Experimental: as §3
The enzyme RmXAL from Rhodotorula mucilaginosa/Rhodotorula rubra (SEQ ID NO: 46) has tyrosine ammonia lyase activity, thus catalyzing the non-oxidative deamination of the amino acid tyrosine, releasing p-coumaric acid (pHCA) and ammonia. The gene encoding RmXAL was codon optimized using standard algorithms for expression in E. coli available by GeneArt (Life Technologies) and amplified by PCR using the primers shown in Table 5 and inserted into the pCDFDuet-1 vector (Novagen/Life Technologies), which had been digested by the restriction enzymes NdeI and BgIII, using Gibson reaction (New England Biolabs). […]

[3] = biological target: T1, SULT1A1 Canis lupus familiaris; experiment: Percent conversion of substrates by E. coli expressing a sulfotransferase; format: cell-based; details: E. coli BL21(DE3)pLysS expressing SULT1A1 Canis lupus familiaris; M9; pHCA 100 μM, resveratrol 95 μM or kaempferol 87 μM; overnight 37° C.
Experimental: as §3
(§4) Different sulfotransferases were examined for their substrate specificities against three substrates. We tested the sulfotransferases mentioned in example 1, as well as additional ones. The genes encoding these were cloned as described in example 1 using the primers shown in the table below from cDNA libraries of the respective organisms, except for the SULT1A1 from rat (Rattus norvegicus) codon-optimized for E. coli (described above). The resulting vectors were transformed into BL21(DE3)pLysS.
(§5) The resulting strains were grown in M9 medium containing either 100 μM pHCA, 95 μM resveratrol or 87 μM kaempferol. The cultures were grown overnight at 37° C., 300 rpm. The following day the supernatants were isolated and examined by HPLC as described in example 1.

[4] = test system: SULT1C1 Gallus gallus domesticus; experiment: as above; format: cell-based; details: E. coli BL21(DE3)pLysS expressing SULT1C1 Gallus gallus domesticus; M9; pHCA 100 μM, resveratrol 95 μM or kaempferol 87 μM; overnight 37° C.
Experimental: as §3, §4, §5

[5] = test system: SULT1A1 Sus scrofa domesticus; experiment: as above; format: cell-based; details: E. coli BL21(DE3)pLysS expressing SULT1A1 Sus scrofa domesticus; M9; pHCA 100 μM, resveratrol 95 μM or kaempferol 87 μM; overnight 37° C.
Experimental: as §3, §4, §5

E. coli MG1655 = experiment: Toxicity of unsulfated or sulfated product: growth rates of E. coli; details: M9 minimal media, 0.2% glucose, pH 7, 37° C.; pHCA 10-40 mM; zosteric acid 20 mM or 40 mM
Experimental: E. coli MG1655 was grown in chemically defined M9 minimal media with 0.2% glucose as a carbon source without further addition or with the additions of either 10 mM, 20 mM, 25 mM, 30 mM, 35 mM or 40 mM p-coumaric acid (pHCA), or with 20 mM or 40 mM of the sulfate ester of pHCA (zosteric acid). All media preparations had been adjusted to pH 7. Cells were grown at 37° C. with 250 rpm shaking in an orbital shaker. The growth rates were examined by following the optical density at 600 nm.

SMILES	Zosteric acid formed [1] [mM]	Zosteric acid formed [2] [mM]	Zosteric acid formed (SULT1A1 human) [mM]	Zosteric acid formed (RmXAL)	Percent conversion of the substrate [3] [%]	Percent conversion of the substrate [4] [%]	Percent conversion of the substrate [5] [%]	pHCA remaining [1] [mM]	pHCA remaining [2] [mM]	pHCA remaining (SULT1A1 human) [mM]	pHCA (RmXAL) [mM]	Toxicity to the cells (growth rates in exponential growth phase, OD 600 nm, FIG. 4) (E. coli MG1655)
O=C(O)/C=C/c1ccc(OS(=O)(=O)O)cc1 [Zosteric acid, zosteric acid]	0.01	0.10	0.02	Not detectable								
O=C(O)/C=C/c1ccc(O)cc1 [pHCA, p-coumaric acid]					34	26	8	0.10	0.02	0.08	0.04	toxic to the cells
